Measured values reported in patent US11180452B2, “Methods and compositions for selectively inhibiting pathogenic microbes” (priority 2019, dated 2021).
Converted amounts (≈) assume the structure as drawn. Read-outs that look alike come from different tables or passages of the source.

Key:
Type in all cases: cell-based
Trichophyton rubrum = test: MIC against Trichophyton rubrum; details: Trichophyton rubrum Castellani Sabouraud ATCC: 28188; read-out: MIC
Candida glabrata = Candida glabrata MIC / MFC; details: Nakaseomyces glabratus; for MIC: read-out: MIC; for MFC: read-out: MFC
[1] = system: Francisella tularensis subsp. Holarctica Strain LVSR NR-597; test: microbe, parasite or virus in culture
Bacillus subtilis = Bacillus subtilis MIC / MBC; details: for MBC: Bacillus subtilis NRRL: B-571, minimum bactericidal concentration; for MIC: Bacillus subtilis
Bacillus thuringiensis = details: for MIC: Bacillus thuringiensis
[2] = system: Burkholderia thailandensis Brett et al ATCC: 700388; test: microbe, parasite or virus in culture
C. albicans = test: Candida albicans MIC / MFC
[3] = Candida glabrata #584 (Table 2)
[4] = Bacillus subtilis (Ehrenberg 1835) Cohn 1872 NRRL: B-571, read-out: MIC
[5] = Bacillus thuringiensis Berliner ATCC: 10792
[6] = Bacillus thuringiensis Berliner ATCC: 10792, read-out: MIC
[7] = strain B-1985, read-out: Bacillus subtilis MIC
[8] = strain B-3665, read-out: Bacillus subtilis MIC
[9] = strain B-14322, read-out: Bacillus subtilis MIC
[10] = strain B-41090, read-out: Bacillus subtilis MIC
[11] = strain B-41581, read-out: Bacillus subtilis MIC
[12] = strain BD-594, read-out: Bacillus subtilis MIC
[13] = C. albicans strain #761, read-out: MIC
[14] = C. albicans strain #762, read-out: MIC
[15] = C. glabrata strain #584 (Table 7)
[16] = C. albicans strain #761, read-out: MFC
[17] = C. albicans strain #762, read-out: MFC

| Structure (SMILES) | MIC (Trichophyton rubrum) [µg/mL] | MIC (Candida glabrata; [3]) [µg/mL] | MIC [1] [µg/mL] | MBC (Bacillus subtilis) [µg/mL] | MIC (Bacillus subtilis; [4]) [µg/mL] | MBC (Bacillus thuringiensis; [5]) [µg/mL] | MIC (Bacillus thuringiensis; [6]) [µg/mL] | MIC [2] [µg/mL] | other results |
| --- | --- | --- | --- | --- | --- | --- | --- | --- | --- |
| COc1ccc(Sc2c[nH]c3ccccc23)cc1 [Compound 156O, 3-((4-methoxyphenyl)thio)-1H-indole] | 3.19 (≈ 12.5 µM) | 50 (≈ 196 µM) | 3.13 (≈ 12.3 µM) | 12.5 (≈ 49 µM) | 6.25 (≈ 24.5 µM) | > 50 | 6.25 (≈ 24.5 µM) | – | – |
| Brc1ccc(Sc2[nH]c3ccccc3c2Sc2ccc(Br)cc2)cc1 [Compound 156P, 2,3-bis((4-bromophenyl)thio)-1H-indole] | 6.11 (≈ 12.4 µM) | > 50 | > 50 | > 50 | 12.5 (≈ 25.4 µM) | > 50 | 3.13 (≈ 6.37 µM) | – | – |
| Cc1c(Sc2ccc(Br)cc2)[nH]c2ccccc12 [Compound 172B, 2-((4-bromophenyl)thio)-3-methyl-1H-indole] | 15.6 (≈ 49 µM) | 50 (≈ 157 µM) | 3.13 (≈ 9.84 µM) | 25 (≈ 78.6 µM) | 6.25 (≈ 19.6 µM) | 25 (≈ 78.6 µM) | 6.25 (≈ 19.6 µM) | – | – |
| Brc1ccc(Sc2c[nH]c3ccc(Br)cc23)cc1 [Compound 172D, 5-bromo-3-((4-bromophenyl)thio)-1H-indole] | 1.18 (≈ 3.08 µM) | > 50 | 1.25 (≈ 3.26 µM) | 5 (≈ 13.1 µM) | 1.25 (≈ 3.26 µM) | 10 (≈ 26.1 µM) | 1.25 (≈ 3.26 µM) | 100 (≈ 261 µM) | MIC (Bacillus subtilis; strain B-571 (Table 4), read-out: Bacillus subtilis MIC): 1.25 µg/mL (≈ 3.26 µM); MIC (Bacillus subtilis; [7]): 1.25 µg/mL (≈ 3.26 µM); MIC (Bacillus subtilis; [8]): 1.25 µg/mL (≈ 3.26 µM); MIC (Bacillus subtilis; [9]): 1.25 µg/mL (≈ 3.26 µM); MIC (Bacillus subtilis; [10]): 2.5 µg/mL (≈ 6.53 µM); MIC (Bacillus subtilis; [11]): 1.25 µg/mL (≈ 3.26 µM); MIC (Bacillus subtilis; [12]): 2.5 µg/mL (≈ 6.53 µM); MIC (Bacillus thuringiensis; ATCC10792, […]): 1.25 µg/mL (≈ 3.26 µM); MIC (Bacillus thuringiensis; strain B-1596): 2.5 µg/mL (≈ 6.53 µM); MBC [2]: > 150 µg/mL |
| [O-][S+](c1ccc(Br)cc1)c1c[nH]c2ccc(Br)cc12 (stereo not shown) [Compound 172I, 5-bromo-3-((4-bromophenyl)sulfinyl)-1H-indole] | 9.92 (≈ 24.9 µM) | > 40 | 20 (≈ 50.1 µM) | 10 (≈ 25.1 µM) | 10 (≈ 25.1 µM) | 40 (≈ 100 µM) | 10 (≈ 25.1 µM) | – | – |
| O=S(=O)(c1ccc(Br)cc1)c1c[nH]c2ccc(Br)cc12 [Compound 172J, 5-bromo-3-((4-bromophenyl)sulfonyl)-1H-indole] | 10.3 (≈ 24.8 µM) | > 50 | 6.25 (≈ 15.1 µM) | 6.25 (≈ 15.1 µM) | 3.13 (≈ 7.54 µM) | 3.13 (≈ 7.54 µM) | 1.56 (≈ 3.76 µM) | > 50 | – |
| Brc1ccc(Sc2c[nH]c3cc(Br)c(Br)cc23)cc1 [Compound 174AB, 5,6-dibromo-3-((4-bromophenyl)thio)-1H-indole] | – | 3.13 (≈ 6.77 µM) | 4 (≈ 8.66 µM) | 16 (≈ 34.6 µM) | 4 (≈ 8.66 µM) | 8 (≈ 17.3 µM) | 2 (≈ 4.33 µM) | > 50 | MIC (C. albicans; [13]): > 50 µg/mL; MIC (C. albicans; [14]): > 50 µg/mL; MIC (Candida glabrata; C. glabrata strain #325): > 50 µg/mL; MIC (Candida glabrata; [15]): 3.13 µg/mL (≈ 6.77 µM); MIC (Bacillus subtilis; [7]): 4 µg/mL (≈ 8.66 µM); MIC (Bacillus subtilis; [8]): 2 µg/mL (≈ 4.33 µM); MIC (Bacillus subtilis; [9]): 2 µg/mL (≈ 4.33 µM); MIC (Bacillus subtilis; [10]): 4 µg/mL (≈ 8.66 µM); MIC (Bacillus subtilis; [11]): 2 µg/mL (≈ 4.33 µM); MIC (Bacillus subtilis; [12]): 4 µg/mL (≈ 8.66 µM); MIC (Bacillus thuringiensis; strain B-1596): 4 µg/mL (≈ 8.66 µM) |
| Brc1ccc(Sc2c[nH]c3cc(Br)cc(Br)c23)cc1 [Compound 174AE, 4,6-dibromo-3-((4-bromophenyl)thio)-1H-indole] | – | 25 (≈ 54.1 µM) | 4 (≈ 8.66 µM) | 4 (≈ 8.66 µM) | 2 (≈ 4.33 µM) | > 50 | 2 (≈ 4.33 µM) | > 50 | MFC (C. albicans; [16]): > 50 µg/mL; MIC (C. albicans; [13]): 50 µg/mL (≈ 108 µM); MFC (C. albicans; [17]): 25 µg/mL (≈ 54.1 µM); MIC (C. albicans; [14]): 6.25 µg/mL (≈ 13.5 µM); MFC (Candida glabrata; C. glabrata strain #325): > 50 µg/mL; MIC (Candida glabrata; C. glabrata strain #325): 12.5 µg/mL (≈ 27.1 µM); MIC (Candida glabrata; [15]): 25 µg/mL (≈ 54.1 µM) |
| FC(F)(F)c1ccc2[nH]cc(Sc3ccccc3Br)c2c1 [Compound 174AX, 3-((2-bromophenyl)thio)-5-(trifluoromethyl)-1H-indole] | – | 12.5 (≈ 33.6 µM) | 1 (≈ 2.69 µM) | 8 (≈ 21.5 µM) | 0.5 (≈ 1.34 µM) | 2 (≈ 5.37 µM) | 1 (≈ 2.69 µM) | – | MFC (C. albicans; [16]): 50 µg/mL (≈ 134 µM); MIC (C. albicans; [13]): 12.5 µg/mL (≈ 33.6 µM); MFC (C. albicans; [17]): 12.5 µg/mL (≈ 33.6 µM); MIC (C. albicans; [14]): 6.25 µg/mL (≈ 16.8 µM); MIC (Candida glabrata; C. glabrata strain #325): > 50 µg/mL; MIC (Candida glabrata; [15]): 12.5 µg/mL (≈ 33.6 µM) |
| Brc1ccc(Sc2c[nH]c3c(Br)cccc23)cc1 [Compound 174H, 7-bromo-3-((4-bromophenyl)thio)-1H-indole] | 2.38 (≈ 6.21 µM) | 12.5 (≈ 32.6 µM) | 3.13 (≈ 8.17 µM) | > 50 | 3.13 (≈ 8.17 µM) | 12.5 (≈ 32.6 µM) | 6.25 (≈ 16.3 µM) | > 50 | – |
| Clc1cccc(Sc2c[nH]c3ccc(Br)cc23)c1Cl [Compound 174T, 5-bromo-3-((2,3-dichlorophenyl)thio)-1H-indole] | 1.16 (≈ 3.11 µM) | 3.13 (≈ 8.39 µM) | – | > 10 | 1.25 (≈ 3.35 µM) | 2.5 (≈ 6.7 µM) | 1.25 (≈ 3.35 µM) | > 50 | MFC (Candida glabrata; Candida glabrata #584 (Table 2), minimum fungicidal concentration): 25 µg/mL (≈ 67 µM) |
| Brc1ccc(Sc2c[nH]c3ccccc23)cc1 [Compound 174U, 3-((4-bromophenyl)thio)-1H-indole] | 0.95 (≈ 3.12 µM) | > 50 | 1.56 (≈ 5.13 µM) | > 10 | > 50 | 12.5 (≈ 41.1 µM) | 12.5 (≈ 41.1 µM) | > 50 | – |
| Nc1cccc(Sc2c[nH]c3ccc(Br)cc23)c1 [Compound 174Y, 3-((5-bromo-1H-indol-3-yl)thio)aniline] | 3.97 (≈ 12.4 µM) | 25 (≈ 78.3 µM) | – | > 10 | 10 (≈ 31.3 µM) | > 10 | 10 (≈ 31.3 µM) | > 50 | – |
| Nc1ccc(Sc2c[nH]c3ccc(Br)cc23)cc1 [Compound 174Z, 4-((5-bromo-1H-indol-3-yl)thio)aniline] | 3.97 (≈ 12.4 µM) | 25 (≈ 78.3 µM) | – | > 10 | 10 (≈ 31.3 µM) | > 10 | 10 (≈ 31.3 µM) | > 50 | – |
